Experimental data published in patent publication US20260335314A1, “CRYSTALLINE SALTS OR AMORPHOUS FORMS OF 2-((1H-PYRAZOL-3-YL)METHYL)-6-((6-AMINOPYRIDIN-2-YL)METHYL)-4-METHYL-4,6-DIHYDRO -5H-THIAZOLO[5',4':4,5]PYRROLO[2,3-D]PYRIDAZIN-5-ONE” (Agios Pharmaceuticals, Inc., priority 2023, published 2026).
In brackets after ≈: the same amount, converted by molar mass.

Legend:
[1] = pH solubility in buffers; format: physicochemical; conditions: for pH (24 h): pH of solution at 24 h
Protocol: (§1) Solubility samples were prepared by weighing about 10 mg of each salt and adding 1 mL of media and vortexed briefly to obtain suspensions. […] For such instances, the solubility is calculated as greater than (>).
(§2) The sample vials were capped and wrapped in aluminum foil, and placed on a shaker at 37° C. The shaker was set at about 100 rpm and vials were removed at specified time points. The vials were observed, and the supernatants were transferred to Eppendorf tubes and centrifuged at 3K for 10 minutes. The clear supernatants were transferred to HPLC vials. The samples were diluted prior to HPLC analysis using the dilution media by 2× or used without dilution. pH was measured of the 24 hour timepoint after centrifugation using a micro pH probe.
(§3) • pH 2 buffer USP: Mixed 50 mL of 0.2M potassium chloride and 13 mL 0.2M HCl, diluted to 200 mL with water. • pH 4.5 buffer USP: 5.44 g of potassium dihydrogen phosphate was diluted to 1000 mL with water. • pH 6.8 buffer USP: Mixed 50 mL of 0.2M potassium phosphate and 22.4 mL 0.2M sodium hydroxide. Diluted with water to 200 mL. • SGF: 2.0109 g of NaCl was dissolved in water, added 7 mL of conc. HCl and diluted to 1 L. • FeSSIF: 4.0321 g of NaOH and 11.8726 g of NaCl were dissolved in water, added 8.65 mL of glacial acetic acid, adjusted the pH to 5.0 and diluted to 1 L. • FaSSIF: 0.4247 g of NaOH, 3.9548 g of sodium phosphate monobasic monohydrate and 6.1900 g of NaCl were dissolved in water, adjusted the pH to 6.5 and diluted to 1 L.
At each time point, the solution was analyzed by HPLC and residue was vacuum dried and analyzed by XRPD. The pH of the solution was measured at 24 hours.

[2] = Stability study of Form A (storage); format: physicochemical
[3] = Dynamic vapor sorption (moisture uptake); format: physicochemical; conditions: 25° C., from 5% to 95% relative humidity
Protocol: Dynamic Vapor Sorption (DVS) was carried out using a TA Instruments Q5000 Dynamic Vapor Sorption analyzer. The instrument was calibrated with standard weights and a sodium bromide standard for humidity. Approximately 10-25 mg of sample was loaded into a metal-coated quartz pan for analysis. […] The movement from one step to the next occurred either after satisfying the equilibrium criterion of 0.01% weight change or, if the equilibrium criterion was not met, after one hour. The percent weight change values were calculated using Microsoft Excel®.

[4] = Kinetic solubility in biorelevant media; format: physicochemical
Protocol: as §1, §2
as §3, with “adjusted the pH to 5.0 and diluted to 1 L. • FaSSIF:” left out
Kinetic solubility was determined in biorelevant media. At each time point, the solution was analyzed by HPLC. The solid residue was analyzed by XRPD at selected time points. The pH of the solution was measured at 24 hours.

[5] = Pharmacokinetics / absolute bioavailability in male Sprague Dawley rats; format: in vivo
Protocol: Twenty-one (21) male Sprague Dawley rats (purchased from Shanghai Laboratory Animal Center Co., Ltd., Shanghai, China) were randomized into 7 groups (3 animals per group). The animals fasted overnight, the forms of Compound 1 shown in Table 7 were administered by oral gavage, and the animals were fed 4 hours post-dose.
Blood was serially collected from each animal at 0 (pre-dose), 0.083, 0.25, 0.5, 1, 2, 4, 8, and 24 h post-dose. For each collection, the animal was restrained manually, and approximately 150 μL of blood sample was collected via the tail vein into K2EDTA tubes. Plasma samples were stored at approximately −70° C. until analysis.
To enable the calculation of absolute bioavailability, Compound 1 was formulated as a solution in 10% N-methyl-2-pyrrolidone, 10% Solutol HS 15, and 80% saline and administered at 1 mg/kg as intravenous (IV) bolus dose to a separate group of male Sprague Dawley rats, and blood samples were collected at similar timepoints to those shown above. Further, plasma samples were obtained from the collected samples and stored at approximately −70° C. until analysis.
The concentration of Compound 1 in the plasma samples was determined by LC-MS/MS analysis.
A 20 μL aliquot of each plasma sample was mixed with 200 μL of acetonitrile containing glipizide as an internal standard (40 ng/mL). The resulting mixture was vortexed at 1500 rpm for 2 min and centrifuged at 5800 rpm for 10 min. A 1 μL sample from the supernatant was injected into LC-MS/MS.
LC-MS/MS analysis was conducted on a UPLC/MS-MS (API 6500+) system under the conditions outlined in Table 8
The absolute bioavailability of each form of Compound 1 was determined by dividing the AUCinf of the form in question by the AUCinf obtained historical data by IV administration of Compound 1.

[6] = Physicochemical properties of Form A (summary)

Cn1c2nc(Cc3cc[nH]n3)sc2c2cnn(Cc3cccc(N)n3)c(=O)c21 [Form A]
solubility at 2 h ([1]; 0.1 n hcl, 2 h, 37 °C): 1970 µg/mL (≈ 5020 µM) | solubility at 24 h ([1]; 0.1 n hcl, 24 h, 37 °C): 1480 µg/mL (≈ 3770 µM) | solubility ([1]; pH 2 (USP), 2 h, 37 °C, 120 min): 0.40 mg/mL (≈ 1020 µM) | solubility ([1]; pH 2 (USP), 24 h, 37 °C, 1440 min): 0.30 mg/mL (≈ 764 µM) | pH (24 h) ([1]; pH 2 (USP)): 2.06 | solubility ([1]; pH 4.5 (USP), 2 h, 37 °C, 120 min): 0.06 mg/mL (≈ 153 µM) | solubility ([1]; pH 4.5 (USP), 24 h, 37 °C, 1440 min): 0.05 mg/mL (≈ 127 µM) | pH (24 h) ([1]; pH 4.5 (USP)): 4.32 | solubility ([1]; pH 6.8 (USP), 2 h, 37 °C, 120 min): 0.04 mg/mL (≈ 102 µM) | solubility ([1]; pH 6.8 (USP), 24 h, 37 °C, 1440 min): 0.07 mg/mL (≈ 178 µM) | pH (24 h) ([1]; pH 6.8 (USP)): 5.63 | degradation ([2]; one month under 25±2° C./60±5% RH): No degradation was observed | degradation ([2]; one month under 40±2° C./75±5% RH): No degradation was observed | moisture uptake (DVS) [3]: about 0.08% | solubility ([4]; FaSSIF pH 6.5, 10 min, 37 °C, 10 min): 0.12 mg/mL (≈ 306 µM) | solubility ([4]; FaSSIF pH 6.5, 30 min, 37 °C, 30 min): 0.12 mg/mL (≈ 306 µM) | solubility ([4]; FaSSIF pH 6.5, 1 h, 37 °C, 60 min): 0.11 mg/mL (≈ 280 µM) | solubility ([4]; FaSSIF pH 6.5, 2 h, 37 °C, 120 min): 0.16 mg/mL (≈ 408 µM) | solubility ([4]; FaSSIF pH 6.5, 4 h, 37 °C, 240 min): 0.17 mg/mL (≈ 433 µM) | solubility ([4]; FaSSIF pH 6.5, 24 h, 37 °C, 1440 min): 0.18 mg/mL (≈ 459 µM) | pH (24 h) ([4]; FaSSIF pH 6.5, pH of solution at 24 h): 3.91 | solubility ([4]; FeSSIF pH 5.0, 10 min, 37 °C, 10 min): 0.55 mg/mL (≈ 1400 µM) | solubility ([4]; FeSSIF pH 5.0, 30 min, 37 °C, 30 min): 0.10 mg/mL (≈ 255 µM) | solubility ([4]; FeSSIF pH 5.0, 1 h, 37 °C, 60 min): 0.23 mg/mL (≈ 586 µM) | solubility ([4]; FeSSIF pH 5.0, 2 h, 37 °C, 120 min): 0.07 mg/mL (≈ 178 µM) | solubility ([4]; FeSSIF pH 5.0, 4 h, 37 °C, 240 min): 0.07 mg/mL (≈ 178 µM) | solubility ([4]; FeSSIF pH 5.0, 24 h, 37 °C, 1440 min): 0.03 mg/mL (≈ 76.4 µM) | pH (24 h) ([4]; FeSSIF pH 5.0, pH of solution at 24 h): 5.74 | pH (24 h) ([4]; SGF pH 1.2, pH of solution at 24 h): 0.87 | solubility at 10 min ([4]; sgf, pH 1.2, SGF pH 1.2, 10 min, 37 °C): 2850 µg/mL (≈ 7260 µM) | solubility at 0.5 h ([4]; sgf, pH 1.2, SGF pH 1.2, 30 min, 37 °C): 4960 µg/mL (≈ 12600 µM) | solubility at 1 h ([4]; sgf, pH 1.2, SGF pH 1.2, 1 h, 37 °C): 2840 µg/mL (≈ 7240 µM) | solubility at 2 h ([4]; sgf, pH 1.2, SGF pH 1.2, 2 h, 37 °C): 3240 µg/mL (≈ 8260 µM) | solubility at 4 h ([4]; sgf, pH 1.2, SGF pH 1.2, 4 h, 37 °C): 3770 µg/mL (≈ 9610 µM) | solubility at 24 h ([4]; sgf, pH 1.2, SGF pH 1.2, 24 h, 37 °C): 2880 µg/mL (≈ 7340 µM) | absolute bioavailability, comparison with other forms ([5]; oral gavage, 10 mg/kg): higher than the measured bioavailability of the other forms of Compound 1 | AUCinf ([5]; oral gavage, 10 mg/kg, fasted overnight, plasma): 9426 ng·h/mL | Absolute % F ([5]; oral gavage, 10 mg/kg, vs historical IV AUCinf, 10 mg/kg): 60% | plasma concentration-time profiles and pharmacokinetic parameters ([5]; summary statement): favorable plasma concentration-time profiles and pharmacokinetic parameters | stability in solvent systems ([6]; especially containing water): stability in multiple solvent systems | stability in humidity ([6]; relative humidity): at least 20 % RH | particle size ([6]; under microscope): below 20 μm | stability in humidity (water activity) ([6]; water activity): ≥ 0.2
